Experimental data from patent US4340539A, “Derivatives of 6-bromo penicillanic acid” (priority 1980, dated 1982).
Values after ≈ are worked out from the molar mass of the structure shown. Counter-ions that a name gives are not always drawn. Like-named read-outs stand apart in the source and are kept apart here.

How the values were obtained:
[1] = system: β-lactamase producing strains of E. coli; assay: Therapeutic efficacy of amoxicillin in combinations with BL-P2024 in infected mice (Table 7); format: in vivo; details: oral
[2] = system: β-lactamase producing strains of E. coli; assay: animal or person; format: in vivo, mice; details: Escherichia coli, in Mus musculus, po
Experimental: (§1) Drugs were administered orally at 0 and 2 hours postinfection.
(§2) Drugs were suspended in TCMC.

[3] = system: β-lactamase producing strains of S. aureus; assay: animal or person; format: in vivo, mice; details: Staphylococcus aureus, in Mus musculus, po
Experimental: as §1, §2

B. thetaiotaomicron = assay: Anti-Bacteroides activity (MIC, agar dilution), alone and in combination with BL-P2013; format: cell-based
Experimental: *Minimum inhibitory concentration (MIC) determined by the agar dilution
method using 50X dilutions of 24 hour cultures as inocula dispensed by th
Steer's inoculator. Assay medium composed of Brucella Agar plus 5% laked
sheep blood and 10 mcg/ml vitamin K.

S. aureus A-9606 = assay: Therapeutic efficacy in mice experimentally infected with a beta-lactamase strain of Staphylococcus aureus (Table 3); format: in vivo; details: for ED50: Staphylococcus aureus, A9606, challenge 5 × 10^8, read-out: PD50/Treatment
Experimental: Treatment schedule: Drugs administered 0 and 2 hours postinfection.

B. fragilis = assay: Anti-Bacteroides activity (MIC, agar dilution), alone and in combination with BL-P2013; format: cell-based
[4] = system: β-lactamase producing strains of S. aureus; assay: Therapeutic efficacy of amoxicillin in combinations with BL-P2024 in infected mice (Table 7); format: in vivo; details: Staphylococcus aureus, po, read-out: PD50/Treatment
Bacteroides species = assay: Anti-Bacteroides activity (MIC, agar dilution), alone and in combination with BL-P2013; format: cell-based
E. cloacae = assay: Antibacterial activity (MIC); format: cell-based; details: Enterobacter cloacae, strain A-9659
S. pneumoniae = assay: Antibacterial activity (MIC); format: cell-based; details: Streptococcus pneumoniae; strain A-9585
P. rettgeri = assay: Antibacterial activity (MIC); format: cell-based; details: Providencia rettgeri; strain A21203
S. marcescens = assay: Antibacterial activity (MIC); format: cell-based; details: Serratia marcescens; strain A20019
S. faecalis = assay: Antibacterial activity (MIC); format: cell-based; details: Enterococcus faecalis; strain A20688
E. coli = assay: Antibacterial activity (MIC); format: cell-based; details: Escherichia coli, strain A15119
S. pyogenes = assay: Antibacterial activity (MIC); format: cell-based; details: Streptococcus pyogenes; strain A-9604
P. mirabilis = assay: Antibacterial activity (MIC); format: cell-based; details: Proteus mirabilis; strain A-9900
S. aureus = assay: Antibacterial activity (MIC); format: cell-based; details: Staphylococcus aureus
in vivo = assay: in vivo; set-up: species or system mice; details: mouse, blood, po, 100 mg/kg, Test 3, oral 100 mg/kg, 30 min; read-out: Blood level
Excerpt: Compounds prepared in 5% Propylene Glycol & TweenCMC-H2 O.
Values in parentheses are 95% confidence limits.
Assay Organism: E. coli A9675 (pH = 6.6, 0.1% inoculum)

[5] = man, cited from earlier work
Hygroscopicity = format: physicochemical
[6] = Bacteroides thetaiotaomicron, strain A22277, β-lactamase +, read-out: MIC
[7] = strain A21875, β-lactamase +, read-out: MIC
[8] = strain A21916, β-lactamase +, read-out: MIC
[9] = strain A22021, β-lactamase +, read-out: MIC
[10] = strain A22053, β-lactamase +, read-out: MIC
[11] = strain A22697, β-lactamase +, read-out: MIC
[12] = strain A22793, β-lactamase +, read-out: MIC
[13] = strain A22794, β-lactamase +, read-out: MIC
[14] = strain A22798, β-lactamase +, read-out: MIC
[15] = Bacteroides, strain A20927-1, β-lactamase -, read-out: MIC
[16] = Bacteroides, strain A20933, β-lactamase +, read-out: MIC
[17] = Bacteroides, strain A20934, β-lactamase +, read-out: MIC
[18] = Bacteroides, strain A20935, β-lactamase -, read-out: MIC

For `CC1(C)S[C@@H]2[C@H](NC(=O)[C@H](N)c3ccc(O)cc3)C(=O)N2[C@H]1C(=O)O` [Amoxicillin], the PD50/Treatment ([1]; E. coli A9675, challenge 6 × 10^5, vehicle TCMC) was > 400 mg/kg, the PD50/Treatment ([1]; E. coli A9675, challenge 7 × 10^5, vehicle 50% DMSO) was > 100 mg/kg and the PD50/Treatment ([1]; E. coli A9675, challenge 7 × 10^5, vehicle TCMC) was > 100 mg/kg. For the same compound, the PD50/Treatment ([1]; E. coli A9675, challenge 9 × 10^5, vehicle 50% DMSO) was > 100 mg/kg, the ED50 ([2]; read-out: PD50/Treatment, oral, E. coli A9675, challenge 6 × 10^5) was > 400 mg/kg and the ED50 ([2]; read-out: PD50/Treatment, oral, E. coli A9675, challenge 7 × 10^5) was > 100 mg/kg. For the same compound, the ED50 ([2]; read-out: PD50/Treatment, oral, E. coli A9675, challenge 8 × 10^5) was > 200 mg/kg, the ED50 ([2]; read-out: PD50/Treatment, oral, E. coli A20649, challenge 5 × 10^5) was > 200 mg/kg and the ED50 ([2]; read-out: PD50/Treatment, oral, E. coli A20649, challenge 6 × 10^5) was > 200 mg/kg. The ED50 ([2]; read-out: PD50/Treatment, oral, E. coli A21223, challenge 6 × 10^5) was > 200 mg/kg, the ED50 ([2]; read-out: PD50/Treatment, oral, E. coli A21223, challenge 7 × 10^5 (first line)) was > 200 mg/kg and the ED50 ([2]; read-out: PD50/Treatment, oral, E. coli A21223, challenge 7 × 10^5 (third line)) was > 200 mg/kg. For the same compound, the ED50 ([3]; read-out: PD50/Treatment, oral, S. aureus A9606, challenge 2 × 10^9) was > 800 mg/kg, the ED50 ([3]; read-out: PD50/Treatment, oral, S. aureus A9606, challenge 7 × 10^8) was > 200 mg/kg and the ED50 ([3]; read-out: PD50/Treatment, oral, S. aureus A15091, challenge 4 × 10^8) was > 200 mg/kg. The ED50 ([3]; read-out: PD50/Treatment, oral, S. aureus A15091, challenge 5 × 10^8) was > 800 mg/kg, the ED50 ([3]; read-out: PD50/Treatment, oral, S. aureus A20379, challenge 5 × 10^8) was > 200 mg/kg and the ED50 ([3]; read-out: PD50/Treatment, oral, S. aureus A20379, challenge 6 × 10^8) was > 200 mg/kg. For the same compound, the MIC (B. thetaiotaomicron; [6]) was 16 mg/L, the MIC (B. thetaiotaomicron; strain A22279, β-lactamase +) was 16 mg/L and the PD50/Treatment (S. aureus A-9606; IM, challenge 7 × 10^8) was > 800 mg/kg. The ED50 (S. aureus A-9606; IM) was > 800 mg/kg, the ED50 (S. aureus A-9606; PO) was > 800 mg/kg and the MIC (B. fragilis; [7]) was 8 mg/L. For the same compound, the MIC (B. fragilis; [8]) was 8 mg/L, the MIC (B. fragilis; [9]) was 4 mg/L and the MIC (B. fragilis; [10]) was 8 mg/L. For the same compound, the MIC (B. fragilis; strain A22533, β-lactamase +) was > 125 mg/L, the MIC (B. fragilis; strain A22534, β-lactamase +) was > 125 mg/L and the MIC (B. fragilis; strain A22535, β-lactamase +) was > 125 mg/L. The MIC (B. fragilis; strain A22693, β-lactamase +) was 16 mg/L, the MIC (B. fragilis; strain A22694, β-lactamase +) was 16 mg/L and the MIC (B. fragilis; strain A22695, β-lactamase +) was 125 mg/L. For the same compound, the MIC (B. fragilis; strain A22696, β-lactamase +) was > 125 mg/L, the MIC (B. fragilis; [11]) was 8 mg/L and the MIC (B. fragilis; strain A22792, β-lactamase +) was 125 mg/L. The MIC (B. fragilis; [12]) was 8 mg/L, the MIC (B. fragilis; [13]) was 8 mg/L and the MIC (B. fragilis; strain A22795, β-lactamase +) was 16 mg/L. The MIC (B. fragilis; strain A22797, β-lactamase +) was 16 mg/L, the MIC (B. fragilis; [14]) was 8 mg/L and the ED50 [4] was > 800 mg/kg. The MIC (Bacteroides species; Bacteroides) was 16 mg/L, the MIC (Bacteroides species; [15]) was 0.13 mg/L and the MIC (Bacteroides species; Bacteroides, strain A20930, β-lactamase +, read-out: MIC) was 32 mg/L. For the same compound, the MIC (Bacteroides species; [16]) was 8 mg/L, the MIC (Bacteroides species; [17]) was 8 mg/L and the MIC (Bacteroides species; [18]) was 0.13 mg/L. For the same compound, the MIC (Bacteroides species; strain A20929, β-lactamase +) was 16 mg/L, the MIC (Bacteroides species; strain A20931, β-lactamase +) was 16 mg/L and the MIC (Bacteroides species; strain A21954, β-lactamase +) was 16 mg/L.

For `CC1(C)S[C@@H]2[C@H](NC(=O)[C@H](N)c3ccccc3)C(=O)N2[C@H]1C(=O)O` [Ampicillin, reference compound], the MIC (E. cloacae) was 63 mg/L (≈ 180 µM), the MIC (S. pneumoniae) was 0.004 mg/L (≈ 0.0114 µM) and the MIC (P. rettgeri) was 4 mg/L (≈ 11.4 µM). It also gave an MIC (S. marcescens) of 16 mg/L (≈ 45.8 µM), an MIC (S. faecalis) of 0.13 mg/L (≈ 0.372 µM) and an MIC (E. coli) of 1 mg/L (≈ 2.86 µM). It also gave an MIC (S. pyogenes) of 0.004 mg/L (≈ 0.0114 µM), an MIC (P. mirabilis) of 0.13 mg/L (≈ 0.372 µM) and an MIC (S. aureus; strain A-9537) of 0.16 mg/L (≈ 0.458 µM). It also gave an MIC (S. aureus; strain A-9537, + 50% serum) of 0.06 mg/L.

In the case of `CC1(CCl)C(C(=O)OC2OC(=O)c3ccccc32)N2C(=O)CC2S1(=O)=O` (centres unmarked) [BL-P2036], the concentration at 0.5 h (in vivo) is reported as 6.7 µg/mL.

`NCc1ccccc1CC(=O)N[C@@H]1C(=O)N2C(C(=O)O)=C(CSc3nnnn3CC(=O)O)CS[C@H]12` [Ceforanide] showed an MIC (B. thetaiotaomicron; [6]) of 125 mg/L, an MIC (B. thetaiotaomicron; strain A22279, β-lactamase +) of 125 mg/L and an MIC (B. fragilis; [7]) of 32 mg/L. For the same compound, the MIC (B. fragilis; [8]) was 63 mg/L, the MIC (B. fragilis; [9]) was 32 mg/L and the MIC (B. fragilis; [10]) was 32 mg/L. For the same compound, the MIC (B. fragilis; strain A22533, β-lactamase +) was > 125 mg/L, the MIC (B. fragilis; strain A22534, β-lactamase +) was > 125 mg/L and the MIC (B. fragilis; strain A22535, β-lactamase +) was > 125 mg/L. The MIC (B. fragilis; strain A22693, β-lactamase +, read-out: MIC) was 63 mg/L, the MIC (B. fragilis; strain A22694, β-lactamase +) was 125 mg/L and the MIC (B. fragilis; strain A22695, β-lactamase +) was > 125 mg/L. For the same compound, the MIC (B. fragilis; strain A22696, β-lactamase +) was > 125 mg/L, the MIC (B. fragilis; [11]) was 63 mg/L and the MIC (B. fragilis; strain A22792, β-lactamase +) was > 125 mg/L. For the same compound, the MIC (B. fragilis; [12]) was 32 mg/L, the MIC (B. fragilis; [13]) was 32 mg/L and the MIC (B. fragilis; strain A22795, β-lactamase +, read-out: MIC) was 63 mg/L. The MIC (B. fragilis; strain A22797, β-lactamase +, read-out: MIC) was 63 mg/L, the MIC (B. fragilis; [14]) was 32 mg/L and the MIC (Bacteroides species; Bacteroides) was 125 mg/L. It also gave an MIC (Bacteroides species; [15]) of 0.5 mg/L, an MIC (Bacteroides species; Bacteroides, strain A20929, β-lactamase +, read-out: MIC) of 63 mg/L and an MIC (Bacteroides species; Bacteroides, strain A20931, β-lactamase +, read-out: MIC) of 63 mg/L. For the same compound, the MIC (Bacteroides species; [16]) was 63 mg/L, the MIC (Bacteroides species; [17]) was 32 mg/L and the MIC (Bacteroides species; [18]) was 2 mg/L. The MIC (Bacteroides species; Bacteroides, strain A21954, β-lactamase +, read-out: MIC) was 63 mg/L and the MIC (Bacteroides species; Bacteroides, strain A21959, β-lactamase +, read-out: MIC) was 63 mg/L.

In the case of `CC1(C)S[C@@H]2[C@H](NC(=O)[C@H](N)c3ccccc3)C(=O)N2[C@H]1C(=O)OCOC(=O)[C@@H]1N2C(=O)C[C@H]2S(=O)(=O)C1(C)C` [Example 3], the absorption ([5]; gastro-intestinal tract) is given as “excellently absorbed”, the “blood and tissue levels of antibiotic and β-lactamase inhibitor” value [5] is given as “high blood and tissue levels” and the hydrolysis after absorption [5] is given as “hydrolyzed with simultaneous liberation of the active components”.

With `CC1(CCl)C(C(=O)O)N2C(=O)CC2S1(=O)=O` (centres unmarked) [Sodium Salt of BL-P2013] the hygroscopicity (Hygroscopicity) was “Non-hygroscopic”.
